Measurements: patent US20240254119A1 (THIRD HARMONIC BIO, INC., priority 2022, published 2024)
Values belong to the molecule of their own block, whether it stands above or below them.

Target: T1, wtKIT (Homo sapiens, UniProt P10721)
T1 construct: 1888289AM in the reaction mixtures
Assay: HTRF biochemical assay, wtKIT (phosphorylation of a peptide substrate)
Settings: Table 4
Procedure: Exemplary compounds were tested for ability to inhibit the phosphorylation of a peptide substrate by the tyrosine kinase wt KIT, PDGFRα, or CSF-1R. Assay procedures and results are described below.
Enzyme, substrate, and cofactors (ATP and Mn^2+) are combined in a well of a microtiter plate and incubated for 3 hours at 25° C. At the end of the incubation, the reaction is quenched by the addition of an EDTA-containing buffer.
The substrate used in the CSF-1R and PDGFRα assay is FAM-[…]-CONH2 (FAM is carboxyfluorescein). Peptide should be >95% purity. The substrate for the KIT assay is FAM-[…]-NH2.
• 1. To a well of a 384-wellplate add 5 μL of 2× enzyme buffer (or control). • 2. Add 100 nL of 100× compound. Enzyme and compound may be pre-incubated at this time if desired. • 3. Add 5 μL of 2× substrate buffer. • 4. Incubate plate at 25° C. for 3 hours. • 5. Add 10 uL of anti-phosphotyrosine antibody buffer. • 6. Read plate in BioTek Synergy Reader. Reaction Conditions for wtKIT Assay
• 100 mM HEPES, pH 7.5 0.1% BSA • 0.01% Triton x-100 • 1 mM DTT • 10 mM MnCl2 • 10 μM Sodium Orthovanadate • 10 μM Beta-Glycerophosphate • 400 μM ATP • 1% DMSO (from compound) • 1 μM FAM-[…]-CONH2, 5.0 nM wtKIT Enzyme (1888289AM)* • *Specific activity may vary from lot to lot. Enzyme concentration may need to be adjusted to yield 10-20% conversion of substrate to product.

T1 sequence (P10721 26-976): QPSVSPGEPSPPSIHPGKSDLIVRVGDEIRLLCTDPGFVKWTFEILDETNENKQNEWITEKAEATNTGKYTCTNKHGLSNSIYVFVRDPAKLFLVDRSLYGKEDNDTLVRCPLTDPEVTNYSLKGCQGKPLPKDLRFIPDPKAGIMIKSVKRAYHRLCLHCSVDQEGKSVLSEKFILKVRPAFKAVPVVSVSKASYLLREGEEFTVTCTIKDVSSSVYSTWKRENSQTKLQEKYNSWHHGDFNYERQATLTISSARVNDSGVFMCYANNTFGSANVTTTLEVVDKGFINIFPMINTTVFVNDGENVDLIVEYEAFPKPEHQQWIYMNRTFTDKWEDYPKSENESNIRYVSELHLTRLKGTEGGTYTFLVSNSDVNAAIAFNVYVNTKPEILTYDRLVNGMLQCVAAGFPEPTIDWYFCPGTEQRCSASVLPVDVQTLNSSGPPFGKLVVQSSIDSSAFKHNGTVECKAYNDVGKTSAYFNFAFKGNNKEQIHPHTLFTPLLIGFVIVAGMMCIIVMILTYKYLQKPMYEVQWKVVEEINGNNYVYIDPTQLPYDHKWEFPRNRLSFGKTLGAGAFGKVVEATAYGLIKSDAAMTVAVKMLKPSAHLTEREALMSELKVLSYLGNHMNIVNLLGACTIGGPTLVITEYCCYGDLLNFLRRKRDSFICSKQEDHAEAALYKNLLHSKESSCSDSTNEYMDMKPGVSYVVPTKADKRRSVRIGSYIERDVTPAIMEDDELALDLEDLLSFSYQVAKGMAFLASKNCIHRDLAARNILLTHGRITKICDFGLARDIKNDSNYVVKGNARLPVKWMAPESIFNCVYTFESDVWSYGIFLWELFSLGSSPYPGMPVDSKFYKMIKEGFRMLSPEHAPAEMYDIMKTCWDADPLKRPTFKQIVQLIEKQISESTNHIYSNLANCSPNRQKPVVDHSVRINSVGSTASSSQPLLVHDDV

SMILES: Cc1ccc(-c2noc([C@H]3C[C@@H]3F)n2)cc1NC(=O)c1cnn2cc(CCOCCO)ccc12 [Compound I-503, N-(5-(5-((1R,2S)-2-fluorocyclopropyl)-1,2,4-oxadiazol-3-yl)-2-methylphenyl)-6-(2-(2-hydroxyethoxy)ethyl)pyrazolo[1,5-a]pyridine-3-carboxamide]
- IC50: ≤ 50 nM

SMILES: Cc1ccc(-c2noc(CC(O)c3ccccc3)n2)cc1NC(=O)c1cnc2ccccn12 (centres unmarked) [Compound I-517, N-(5-(5-(2-hydroxy-2-phenylethyl)-1,2,4-oxadiazol-3-yl)-2-methylphenyl)imidazo[1,2-a]pyridine-3-carboxamide]
- IC50: ≤ 50 nM

SMILES: Cc1ccc(-c2noc(C3CC(F)(F)C3)n2)cc1NC(=O)c1cnn2ccccc12 [Compound I-518, methyl N-(5-(5-(3,3-difluorocyclobutyl)-1,2,4-oxadiazol-3-yl)-2-methylphenyl)pyrazolo[1,5-a]pyridine-3-carboxamide]
- IC50: ≤ 50 nM

SMILES: Cc1ccc(-c2noc(CC(O)C(C)(C)C)n2)cc1NC(=O)c1cnc2ccccn12 (centres unmarked) [Compound I-519]
- IC50: ≤ 50 nM

SMILES: Cc1ccc(-c2noc(C3CC(F)(F)C3)n2)cc1NC(=O)c1cnc2cc(COCC(C)(C)O)ccn12 [Compound I-521, N-(5-(5-(3,3-difluorocyclobutyl)-1,2,4-oxadiazol-3-yl)-2-methylphenyl)-7-((2-hydroxy-2-methylpropoxy)methyl)imidazo[1,2-a]pyridine-3-carboxamide]
- IC50: ≤ 50 nM

SMILES: Cc1ccc(-c2noc(CC(O)C(C)C)n2)cc1NC(=O)c1cnc2ccccn12 (centres unmarked) [Compound I-525, N-(5-(5-(2-hydroxy-3-methylbutyl)-1,2,4-oxadiazol-3-yl)-2-methylphenyl)imidazo[1,2-a]pyridine-3-carboxamide]
- IC50: ≤ 50 nM

SMILES: CCC(O)Cc1nc(-c2ccc(C)c(NC(=O)c3cnc4ccccn34)c2)no1 (centres unmarked) [Compound I-526]
- IC50: ≤ 50 nM

SMILES: COCC(O)Cc1nc(-c2ccc(C)c(NC(=O)c3cnc4ccccn34)c2)no1 (centres unmarked) [Compound I-528]
- IC50: 50 to 500 nM

SMILES: COc1ccn2c(C(=O)Nc3cc(-c4noc(C)n4)ccc3C)cnc2c1 [Compound I-533, 7-methoxy-N-(2-methyl-5-(5-methyl-1,2,4-oxadiazol-3-yl)phenyl)imidazo[1,2-a]pyridine-3-carboxamide]
- IC50: ≤ 50 nM

SMILES: Cc1nc(-c2ccc(C)c(NC(=O)c3cnn4cc(-c5ccn(C)n5)ccc34)c2)no1 [Compound I-535, 6-(1-methyl-1H-pyrazol-3-yl)-N-(2-methyl-5-(5-methyl-1,2,4-oxadiazol-3-yl)phenyl)pyrazolo[1,5-a]pyridine-3-carboxamide]
- IC50: ≤ 50 nM

SMILES: COc1ccn2c(C(=O)Nc3cc(-c4noc(-c5ccccn5)n4)ccc3C)cnc2c1 [Compound I-536, 7-methoxy-N-(2-methyl-5-(5-(pyridin-2-yl)-1,2,4-oxadiazol-3-yl)phenyl)imidazo[1,2-a]pyridine-3-carboxamide]
- IC50: ≤ 50 nM

SMILES: COc1ccn2c(C(=O)Nc3cc(-c4noc(Cc5ccc(C)cc5)n4)ccc3C)cnc2c1 [Compound I-537, 7-methoxy-N-(2-methyl-5-(5-(4-methylbenzyl)-1,2,4-oxadiazol-3-yl)phenyl)imidazo[1,2-a]pyridine-3-carboxamide]
- IC50: ≤ 50 nM

SMILES: Cc1ccn2c(C(=O)Nc3cc(-c4noc(C5CCCCC5)n4)ccc3C)cnc2c1 [Compound I-539]
- IC50: ≤ 50 nM

SMILES: Cc1ccn2c(C(=O)Nc3cc(-c4noc(C5CCC(F)(F)CC5)n4)ccc3C)cnc2c1 [Compound I-540, 4 N-(5-(5-(4,4-difluorocyclohexyl)-1,2,4-oxadiazol-3-yl)-2-methylphenyl)-7-methylimidazo[1,2-a]pyridine-3-carboxamide]
- IC50: ≤ 50 nM

SMILES: Cc1ccc(-c2noc(CC(O)CN3CCOCC3)n2)cc1NC(=O)c1cnc2ccccn12 (centres unmarked) [Compound I-543]
- IC50: 50 to 500 nM

Second part, the molecule after the results:

- IC50: ≤ 50 nM
SMILES: Cc1ccc(-c2noc([C@H]3C[C@@H]3F)n2)cc1NC(=O)c1cnn2ccc(C(F)F)cc12 [Compound I-494, 5-(difluoromethyl)-N-(5-(5-((1R,2S)-2-fluorocyclopropyl)-1,2,4-oxadiazol-3-yl)-2-methylphenyl)pyrazolo[1,5-a]pyridine-3-carboxamide]

- IC50: ≤ 50 nM
SMILES: Cc1ccc(-c2noc([C@H]3C[C@@H]3F)n2)cc1NC(=O)c1cnn2ccc(F)cc12 [Compound I-496, 5-fluoro-N-[5-[5-[(1R,2S)-2-fluorocyclopropyl]-1,2,4-oxadiazol-3-yl]-2-methylphenyl]pyrazolo[1,5-a]pyridine-3-carboxamide]

- IC50: ≤ 50 nM
SMILES: Cc1ccc(-c2noc([C@H]3C[C@@H]3F)n2)cc1NC(=O)c1cnc2cc(COCC(C)(C)O)c(F)cn12 [Compound I-498, 6-fluoro-N-[5-[5-[(1R,2S)-2-fluorocyclopropyl]-1,2,4-oxadiazol-3-yl]-2-methyl-phenyl]-7-[(2-hydroxy-2-methyl-propoxy)methyl]imidazo[1,2-a]pyridine-3-carboxamide]

- IC50: ≤ 50 nM
SMILES: Cc1ccc(-c2noc([C@H]3C[C@@H]3F)n2)cc1NC(=O)c1cnc2cc(COCC(O)C(F)F)ccn12 (stereo partly drawn) [Compound I-499, 7-((3,3-difluoro-2-hydroxypropoxy)methyl)-N-(5-(5-((1R,2S)-2-fluorocyclopropyl)-1,2,4-oxadiazol-3-yl)-2-methylphenyl)imidazo[1,2-a]pyridine-3-carboxamide]

- IC50: ≤ 50 nM
SMILES: Cc1ccc(-c2noc([C@H]3C[C@@H]3F)n2)cc1NC(=O)c1cnc2cc(COC[C@@H](O)C(F)F)ccn12 [Compound I-500, 7-(((R)-3,3-difluoro-2-hydroxypropoxy)methyl)-N-(5-(5-((1R,2S)-2-fluorocyclopropyl)-1,2,4-oxadiazol-3-yl)-2-methylphenyl)imidazo[1,2-a]pyridine-3-carboxamide]

- IC50: ≤ 50 nM
SMILES: Cc1ccc(-c2noc([C@H]3C[C@@H]3F)n2)cc1NC(=O)c1cnc2cc(COC[C@H](O)C(F)F)ccn12 [Compound I-501, 7-(((S)-3,3-difluoro-2-hydroxypropoxy)methyl)-N-(5-(5-((1R,2S)-2-fluorocyclopropyl)-1,2,4-oxadiazol-3-yl)-2-methylphenyl)imidazo[1,2-a]pyridine-3-carboxamide]

- IC50: ≤ 50 nM
SMILES: Cc1ccc(-c2noc([C@H]3C[C@@H]3F)n2)cc1NC(=O)c1cnc2cc(C/C=C/OCCO)ccn12 [Compound I-506, N-[5-[5-[(1R,2S)-2-fluorocyclopropyl]-1,2,4-oxadiazol-3-yl]-2-methyl-phenyl]-7-[(E)-3-(2-hydroxyethoxy)allyl]imidazo[1,2-a]pyridine-3-carboxamide]

- IC50: ≤ 50 nM
SMILES: Cc1ccc(-c2noc([C@H]3C[C@@H]3F)n2)cc1NC(=O)c1cnc2cc(-c3ccn(C)n3)ccn12 [Compound I-529, N-(5-(5-((1R,2S)-2-fluorocyclopropyl)-1,2,4-oxadiazol-3-yl)-2-methylphenyl)-7-(1-methyl-1H-pyrazol-3-yl)imidazo[1,2-a]pyridine-3-carboxamide]

- IC50: ≤ 50 nM
SMILES: Cc1nc(-c2ccc(C)c(NC(=O)c3cnc4cc(-c5ccn(C)n5)ccn34)c2)no1 [Compound I-530, 7-(1-methyl-1H-pyrazol-3-yl)-N-(2-methyl-5-(5-methyl-1,2,4-oxadiazol-3-yl)phenyl)imidazo[1,2-a]pyridine-3-carboxamide]

- IC50: ≤ 50 nM
SMILES: Cc1ccc(-c2noc([C@H]3C[C@@H]3F)n2)cc1NC(=O)c1cnc2ccc(-c3ccn(C)n3)cn12 [Compound I-531, N-(5-(5-((1R,2S)-2-fluorocyclopropyl)-1,2,4-oxadiazol-3-yl)-2-methylphenyl)-6-(1-methyl-1H-pyrazol-3-yl)imidazo[1,2-a]pyridine-3-carboxamide]

- IC50: ≤ 50 nM
SMILES: Cc1nc(-c2ccc(C)c(NC(=O)c3cnc4ccc(-c5ccn(C)n5)cn34)c2)no1 [Compound I-532, 6-(1-methyl-1H-pyrazol-3-yl)-N-(2-methyl-5-(5-methyl-1,2,4-oxadiazol-3-yl)phenyl)imidazo[1,2-a]pyridine-3-carboxamide]

- IC50: 50 to 500 nM
SMILES: Cc1ccc(-c2noc(C3CC(O)(C(F)F)C3)n2)cc1NC(=O)c1cnc2ccccn12 (centres unmarked) [Compound I-538]

- IC50: ≤ 50 nM
SMILES: Cc1ccc(-c2noc([C@H]3C[C@@H]3F)n2)cc1NC(=O)c1cnc2ccc(-c3cscn3)cn12 [Compound I-541, N-(5-(5-((1R,2S)-2-fluorocyclopropyl)-1,2,4-oxadiazol-3-yl)-2-methylphenyl)-6-(thiazol-4-yl)imidazo[1,2-a]pyridine-3-carboxamide]

- IC50: ≤ 50 nM
SMILES: Cc1nc(-c2ccc(C)c(NC(=O)c3cnc4ccc(-c5cscn5)cn34)c2)no1 [Compound I-542, N-(2-methyl-5-(5-methyl-1,2,4-oxadiazol-3-yl)phenyl)-6-(thiazol-4-yl)imidazo[1,2-a]pyridine-3-carboxamide]

- IC50: 50 to 500 nM
SMILES: Cc1ccc(-c2nc(-c3ccc(C)c(NC(=O)c4cnc5cc(C)ccn45)c3)no2)nc1 [Compound I-544]

- IC50: 50 to 500 nM
SMILES: Cc1ccn2c(C(=O)Nc3cc(-c4noc(-c5ccnnc5)n4)ccc3C)cnc2c1 [Compound I-546]

- IC50: ≤ 50 nM
SMILES: Cc1ccc(-c2noc([C@H]3C[C@@H]3F)n2)cc1NC(=O)c1cnc2cc(-c3cscn3)ccn12 [Compound I-547, N-(5-(5-((1R,2S)-2-fluorocyclopropyl)-1,2,4-oxadiazol-3-yl)-2-methylphenyl)-7-(thiazol-4-yl)imidazo[1,2-a]pyridine-3-carboxamide]
